Reference: US6303625A, “Triazolopyridines for the treatment of thrombosis disorders” (Ortho-McNeil Pharmaceutical, Inc., priority 1999, dated 2001)

Legend:
[1] = test system: ADP-induced ex vivo platelet aggregation; assay: Ex vivo dog study: duration of >50% inhibition of ADP-induced ex vivo platelet aggregation; format: in vivo
Experimental: Adult mongrel dogs (8-13 kg) were anesthetized with sodium pentobarbital (35 mg/kg, i.v.) and artificially respired. Arterial blood pressure and heart rate were measured using a Millar catheter-tip pressure transducer inserted in a femoral artery. Another Millar transducer was placed in the left ventricle (LV) via a carotid artery to measure LV end diastolic pressure and indices of myocardial contractility. A lead II electrocardiogram was recorded from limb electrodes. Catheters were placed in a femoral artery and vein to sample blood and infuse drugs, respectively. Responses were continuously monitored using a Modular Instruments data acquisition system.
Arterial blood samples (5-9 ml) were withdrawn into tubes containing 3.8% sodium citrate to prepare platelet rich plasma (PRP) and to determine effects on coagulation parameters: prothrombin time (PT) and activated partial thromboplastin time (APTT). Separate blood samples (1.5 ml) were withdrawn in EDTA to determine hematocrit and cell counts (platelets, RBC's and white cells). Template bleeding times were obtained from the buccal surface using a symplate incision devise and Whatman filter paper.
Aggregation of PRP was performed using a BioData aggregometer. Aggregation of whole blood used a Chronolog impedance aggregometer. PT and APTT were determined on either a BioData or ACL 3000+ coagulation analyzer. Cells were counted with a Sysmex K-1000.
Compounds were solubilized in a small volume of dimethylformamide (DMF) and diluted with saline to a final concentration of 10% DMF. Compounds were administered by the intravenous route with a Harvard infusion pump. Doses was administered over a 15 min interval at a constant rate of 0.33 ml/min. Data were obtained after each dose and in 30 min intervals following the end of drug administration. Oral doses were administered as aqueous solutions via syringe.

GPIIb/IIIa = GPIIb/IIIa (Homo sapiens, UniProt P05106+P08514); assay: In vitro solid phase purified glycoprotein IIb/IIIa binding assay (fibrinogen binding); details: for inhibition at 50 µM: read-out: Fibrinogen Binding % Inh. (50 μM)
Experimental: In Vito Solid Phase Purified Glycoprotein IIB/IIA Binding Assay
The plate was covered and incubated overnight at 4° C. The GPIIb/IIa solution was discarded and 150 μl of 5% BSA was added and incubated at RT for 1-3 h. The plate was washed extensively with modified Tyrodes buffer. Biotinylated fibrinogen (25 μl/well) at 2×final concentration was added to the wells that contain the test compounds (25 μl/well). The plate was covered and incubated at RT for 2-4 h. Twenty minutes prior to incubation completion, one drop of Reagent A (Vecta Stain ABC Horse Radish Peroxidase kit, Vector Laboratories, Inc.) and one drop Reagent B were added with mixing to 5 mL modified Tyrodes buffer mix and let stand. The ligand solution was discarded and the plate washed (5×200 μl/well) with modified Tyrodes buffer. Vecta Stain HRP-Biotin-Avidin reagent (50 μl/well, as prepared above) was added and incubated at RT for 15 min. The Vecta Stain solution was discarded and the wells washed (5×200 μl/well) with modified Tyrodes buffer. Developing buffer (10 mL of 50 mM citrate/phosphate buffer @ pH 5.3, 6 mg o-phenylenediamine, 6 μl 30% H2 O2; 50 μl/well) was added and incubated at RT for 3-5 min, and then 2N H2 SO4 (50 μl/well) was added. The absorbance was read at 490 nm.

gel-filtered platelets = assay: In vitro inhibition of thrombin-induced gel-filtered platelet aggregation; format: cell-based; details: Homo sapiens; for inhibition at 50 µM: read-out: Platelet Aggregation % Inh. (50 μM)
Experimental: In Vitro Inhibition of Thrombin-Induced Gel-Filtered Platelet Aggression Assay
The percentage of platelet aggregation is calculated as an increase in light transmission of compound-treated platelet concentrate vs. control-treated platelet concentrate. Human blood was obtained from drug free, normal donors into tubes containing […] sodium citrate. Platelet rich plasma (PRP) was collected by centrifugation of whole blood at 200×g for 10 min at 25° C. The PRP (5 mL) was gel filtered through Sepharose 2B (bed volume 50 mL), and the platelet count was adjusted to 2×10^7 platelets per sample. The following constituents were added to a siliconized cuvette: concentrated platelet filtrate and Tyrode's buffer (0.14M NaCl, 0.0027M KCl, 0.012M NaHCO3,0.76 mM Na2 HPO4, 0.0055M glucose, 2 mg/mL BSA and 5.0 mM HEPES @ pH 7.4) in an amount equal to 350 μl, 50 μl of 20 mM calcium and 50 μl of the test compound. Aggregation was monitored in a BIODATA aggregometer for the 3 min following the addition of agonist (thrombin 50 μl of 1 unit/mL).

GPIIb/IIIa, sequence (P08514 32-887 limits assumed): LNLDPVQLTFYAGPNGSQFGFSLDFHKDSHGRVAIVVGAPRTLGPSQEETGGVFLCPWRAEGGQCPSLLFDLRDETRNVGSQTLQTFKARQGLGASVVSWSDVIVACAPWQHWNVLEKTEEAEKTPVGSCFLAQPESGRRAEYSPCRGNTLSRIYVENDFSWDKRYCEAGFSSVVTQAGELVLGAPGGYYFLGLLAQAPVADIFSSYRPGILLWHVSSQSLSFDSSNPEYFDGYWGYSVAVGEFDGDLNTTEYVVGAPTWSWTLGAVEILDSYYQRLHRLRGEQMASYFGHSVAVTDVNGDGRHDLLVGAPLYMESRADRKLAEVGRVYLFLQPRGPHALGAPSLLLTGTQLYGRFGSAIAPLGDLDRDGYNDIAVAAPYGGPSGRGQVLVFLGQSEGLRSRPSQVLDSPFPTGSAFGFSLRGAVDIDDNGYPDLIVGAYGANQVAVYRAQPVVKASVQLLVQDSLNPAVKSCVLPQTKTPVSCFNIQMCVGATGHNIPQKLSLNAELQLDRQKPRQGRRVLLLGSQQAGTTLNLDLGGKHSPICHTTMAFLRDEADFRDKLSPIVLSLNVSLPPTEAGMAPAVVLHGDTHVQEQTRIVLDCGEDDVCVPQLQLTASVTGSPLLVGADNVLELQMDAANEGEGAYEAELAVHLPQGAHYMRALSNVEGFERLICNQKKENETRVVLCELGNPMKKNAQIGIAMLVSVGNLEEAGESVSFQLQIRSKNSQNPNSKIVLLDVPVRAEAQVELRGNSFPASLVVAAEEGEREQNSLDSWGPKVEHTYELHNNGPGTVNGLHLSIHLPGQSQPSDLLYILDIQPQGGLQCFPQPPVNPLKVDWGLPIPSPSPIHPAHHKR
GPIIb/IIIa, sequence (P08514 891-1039 limits assumed): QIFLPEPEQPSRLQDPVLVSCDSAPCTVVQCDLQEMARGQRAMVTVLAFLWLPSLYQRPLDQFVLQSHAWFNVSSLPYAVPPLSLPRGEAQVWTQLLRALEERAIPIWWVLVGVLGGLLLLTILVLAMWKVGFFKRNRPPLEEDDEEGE
GPIIb/IIIa, sequence (P05106 27-788): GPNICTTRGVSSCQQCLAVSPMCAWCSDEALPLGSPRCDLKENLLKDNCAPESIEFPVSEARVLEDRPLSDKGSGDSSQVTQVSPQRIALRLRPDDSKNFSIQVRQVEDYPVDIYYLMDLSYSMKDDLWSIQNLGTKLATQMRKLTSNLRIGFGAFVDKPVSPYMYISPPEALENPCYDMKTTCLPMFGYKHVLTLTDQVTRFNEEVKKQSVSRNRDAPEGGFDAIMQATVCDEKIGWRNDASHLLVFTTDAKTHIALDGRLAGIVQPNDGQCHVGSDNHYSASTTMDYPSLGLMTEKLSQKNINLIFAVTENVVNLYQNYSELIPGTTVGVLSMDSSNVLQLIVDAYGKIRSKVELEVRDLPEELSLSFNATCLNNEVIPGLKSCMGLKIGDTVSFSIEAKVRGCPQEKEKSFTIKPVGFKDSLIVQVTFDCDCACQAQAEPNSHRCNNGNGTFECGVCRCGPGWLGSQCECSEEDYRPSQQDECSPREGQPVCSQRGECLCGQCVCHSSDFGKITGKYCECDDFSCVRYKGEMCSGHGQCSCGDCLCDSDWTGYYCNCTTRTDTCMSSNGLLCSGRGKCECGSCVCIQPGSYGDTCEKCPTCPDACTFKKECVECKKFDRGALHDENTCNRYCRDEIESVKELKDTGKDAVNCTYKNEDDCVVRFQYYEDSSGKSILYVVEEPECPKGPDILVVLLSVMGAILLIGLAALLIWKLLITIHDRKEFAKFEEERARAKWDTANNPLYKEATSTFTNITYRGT

IC50 (GPIIb/IIIa)	inhibition at 50 µM (GPIIb/IIIa)	IC50 (gel-filtered platelets)	Compound	Intravenous Dosing Duration (of >50% inhibition of ADP-induced ex vivo platelet aggregation) ([1]; 0.3 mpk)	Oral Dosing Duration (of >50% inhibition of ADP-induced ex vivo platelet aggregation) ([1]; 3 mpk)	inhibition at 50 µM (gel-filtered platelets)	Intravenous Dosing Duration (of >50% inhibition of ADP-induced ex vivo platelet aggregation) ([1]; 0.1 mpk)	Oral Dosing Duration (of >50% inhibition of ADP-induced ex vivo platelet aggregation) ([1]; 1 mpk)
0.4 nM	100%	16 nM	O=C(O)C[C@H](NC(=O)C1CCCn2c(CCC3CCNCC3)nnc21)c1cccnc1 (stereo partly drawn) [Compound 1, β-[[[5,6,7,8-Tetrahydro-3-[2-(4-piperidinyl)ethyl]-1,2,4-triazolo[4,3-a]pyridin-8-yl]carbonyl]amino]-βS-3-pyridinepropanoic acid]	180 min	360 min	100%	–	–
0.1 nM	100%	23 nM	O=C(N[C@@H](CNC(=O)C1CCCn2c(/C=C/C3CCNCC3)nnc21)C(=O)O)OCc1ccccc1 (stereo partly drawn) [Compound 5, β-[[[5,6,7,8-Tetrahydro-3-[2-(4-pipieridinyl)E-ethylene]-1,2,4-triazolo[4,3-a]pyridin-8-yl]carbonyl]amino]-αS-benzyloxycarbonylamino-propanoic acid]	–	–	100%	120 min	360 min
0.75 nM	100%	350 nM	O=C(O)CC(NC(=O)C1CCCn2c(CCC3CCNCC3)nnc21)c1ccsc1 (stereo not drawn) [Compound 7, β-[[[5,6,7,8-Tetrahydro-3-[2-(4-piperidinyl)ethyl]-1,2,4-triazolo[4,3-a]pyridin-8-yl]carbonyl]amino]-β-3-thiophenepropanoic acid]	–	–	100%	–	–
0.94 nM	100%	180 nM	O=C(O)CC(NC(=O)C1CCCn2c(/C=C/C3CCNCC3)nnc21)c1ccncc1 (stereo not drawn) [Compound 10, β-[[[5,6,7,8-Tetrahydro-3-[2-(4-piperidinyl)E-ethylene]-1,2,4-triazolo[4,3-a]pyridin-8-yl]carbonyl]amino]-β-4-pyridinepropanoic acid]	–	–	100%	–	–
1.1 nM	100%	110 nM	Cc1noc(C)c1S(=O)(=O)N[C@@H](CNC(=O)C1CCCn2c(/C=C/C3CCNCC3)nnc21)C(=O)O (stereo partly drawn) [Compound 11, β-[[[5,6,7,8-Tetrahydro-3-[2-(4-piperidinyl)E-ethylene]-1,2,4-triazolo[4,3-a]pyridin-8-yl]carbonyl]amino]-αS-4-(3,5-dimethylisoxazolyl)sulfonylamino-propanoic acid]	–	–	100%	–	–
0.44 nM	100%	57 nM	O=C(O)C[C@H](NC(=O)C1CCCn2c(/C=C/C3CCNCC3)nnc21)c1cnc2ccccc2c1 (stereo partly drawn) [Compound 13, β-[[[5,6,7,8-Tetrahydro-3-[2-(4-piperidinyl)E-ethylene]-1,2,4-tiazolo[4,3-a]pyridin-8-yl]carbonyl]amino]-βS-3-quinolinylpropanoic acid]	–	–	100%	–	–
0.51 nM	100%	43 nM	O=C(NC[C@H](NS(=O)(=O)Cc1ccccc1)C(=O)O)C1CCCn2c(/C=C/C3CCNCC3)nnc21 (stereo partly drawn) [Compound 14, β-[[[5,6,7,8-Tetrahydro-3-[2-(4-piperidinyl)E-ethylene]-1,2,4-triazolo[4,3-a]pyridin-8-yl]carbonyl]amino]-αS-benzylsulfonylamino-propanoic acid]	–	–	100%	–	–
1.4 nM	100%	120 nM	O=C(Cc1cccnc1)N[C@@H](CNC(=O)C1CCCn2c(/C=C/C3CCNCC3)nnc21)C(=O)O (stereo partly drawn) [Compound 15, β-[[[5,6,7,8-Tetrahydro-3-[2-(4-piperidinyl)E-ethylene]-1,2,4-triazolo[4,3-a]pyridin-8-yl]carbonyl]amino]-αS-3-pyridylacetylamino-propanoicacid]	–	–	100%	–	–

Continued, compound first:

Compound	IC50 (GPIIb/IIIa)	inhibition at 50 µM (GPIIb/IIIa)	IC50 (gel-filtered platelets)	Intravenous Dosing Duration (of >50% inhibition of ADP-induced ex vivo platelet aggregation) ([1]; 0.3 mpk)	Oral Dosing Duration (of >50% inhibition of ADP-induced ex vivo platelet aggregation) ([1]; 3 mpk)	inhibition at 50 µM (gel-filtered platelets)	Intravenous Dosing Duration (of >50% inhibition of ADP-induced ex vivo platelet aggregation) ([1]; 0.1 mpk)	Oral Dosing Duration (of >50% inhibition of ADP-induced ex vivo platelet aggregation) ([1]; 1 mpk)
O=C(O)CCNC(=O)C1CCCn2c(CCC3CCNCC3)nnc21 (stereo not drawn) [Compound 2, β-[[[5,6,7,8-Tetrahydro-3-[2-(4-piperidinyl)ethyl]-1,2,4-triazolo[4,3-a]pyridin-8-yl]carbonyl]amino]-β-propanoic acid]	7.2 nM	98%	1300 nM	–	–	98%	–	–
O=C(N[C@@H](CNC(=O)C1CCCn2c(CCC3CCNCC3)nnc21)C(=O)O)OCc1ccccc1 (stereo partly drawn) [Compound 3, β-[[[5,6,7,8-Tetrahydro-3-[2-(4-piperidinyl)ethyl]-1,2,4-triazolo[4,3-a]pyridin-8-yl]carbonyl]amino]-αS-benzyloxycarbonylamino-propanoic acid]	0.48 nM	100%	68 nM	–	–	100%	120 min	300 min
CCN(CC)C(=O)COC(=O)C[C@H](NC(=O)C1CCCn2c(CCC3CCNCC3)nnc21)c1cccnc1 (stereo partly drawn) [Compound 4, β-[[[5,6,7,8-Tetrahydro-3-[2-(4-piperidinyl)ethyl]-1,2,4-triazolo[4,3-a]pyridin-8-yl]carbonyl]amino]-βS-3-pyridinepropanoic acid 2-(Diethylamino)-2-oxoethyl ester]	44.7 nM	100%	16400 nM	–	–	100%	–	< 30 min
CCN(CC)C(=O)COC(=O)[C@H](CNC(=O)C1CCCn2c(CCC3CCNCC3)nnc21)NC(=O)OCc1ccccc1 (stereo partly drawn) [Compound 6, β-[[[5,6,7,8-Tetrahydro-3-[2-(4-piperidinyl)ethyl]-1,2,4-triazolo[4,3-a]pyridin-8-yl]carbonyl]amino]-αS-benzyloxycarbonylamino-propanoic acid 2-(Diethylamino)-2-oxoethyl ester]	8.2 nM	100%	1900 nM	–	–	100%	–	–
O=C(NC(CNC(=O)C1CCCn2c(C(F)=CC3CCNCC3)nnc21)C(=O)O)OCc1ccccc1 (stereo not drawn) [Compound 9, β-[[[6,7,8-Tetrahydro-3-[2-(4-piperidinyl)Z-1-fluoroethylene]-1,2,4-triazolo[4,3-a]pyridin-8-yl]carbonyl]amino]-αS-benzyloxycarbonylamino-propanoic acid]	1.7 nM	100%	500 nM	–	–	100%	–	–
CC(C)COC(=O)N[C@@H](CNC(=O)C1CCCn2c(/C=C/C3CCNCC3)nnc21)C(=O)O (stereo partly drawn) [Compound 16, β-[[[5,6,7,8-Tetrahydro-3-[2-(4-piperidinyl)E-ethylene]-1,2,4-triazolo[4,3-a]pyridin-8-yl]carbonyl]amino]-αS-isobutyloxycarbonylamino-propanoic acid]	0.6 nM	100%	600 nM	–	–	100%	–	–
O=C(O)C[C@H](NC(=O)c1cccn2c(CCC3CCNCC3)nnc12)c1cccnc1 [Compound 17, β-[[[3-[2-(4-piperidinyl)ethyl]-1,2,4-triazolo[4,3-a]pyridin-8-yl]carbonyl]amino]-βS-3-pyridylpropanoic acid]	443 nM	90%	> 1000 nM	–	–	–	–	–
